Experimental data taken from PubChem BioAssay AID330 (DTP/NCI, 2004).
“And” between values parts separate entries of the source, which are not always exact repeats. Identical values can stand only once. Inconclusive results and toxic doses are left out. How the source made its calls: active means survival T/C of 150% or more; inactive means T/C below 125% in these data.

Tested on: P388 leukemia ip, CD2F1 mice, survival T/C
Experiment: NCI In Vivo Anticancer Drug Screen. Data for tumor model P388 Leukemia (intraperitoneal) in CD2F1 (CDF1) mice
Conditions: endpoint: median survival time, higher = longer survival
Method in brief: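 Mice carrying the transplanted tumor received test compound or vehicle. Survival was recorded in each group, and the value is the treated-group measurement divided by that of the vehicle-treated control group.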

[1] = dose: 50.0 mg/kg/injection, schedule: Q01DX009 (ip), vehicle: Klucel (hydroxypropylcellulose) (HPC)
[2] = dose: 100.0 mg/kg/injection, schedule: Q01DX009 (ip), vehicle: Klucel (hydroxypropylcellulose) (HPC)
[3] = dose: 12.5 mg/kg/injection, schedule: Q01DX009 (ip), vehicle: saline
[4] = dose: 25.0 mg/kg/injection, schedule: Q01DX009 (ip), vehicle: saline
[5] = dose: 50.0 mg/kg/injection, schedule: Q01DX009 (ip), vehicle: saline with Tween-80
[6] = dose: 50.0 mg/kg/injection, schedule: Q01DX005 (ip), vehicle: Klucel (hydroxypropylcellulose) (HPC)
[7] = dose: 100.0 mg/kg/injection, schedule: Q01DX005 (ip), vehicle: Klucel (hydroxypropylcellulose) (HPC)
[8] = dose: 100.0 mg/kg/injection, schedule: Q01DX009 (ip), vehicle: saline with Tween-80

Measured: T/C

CC[C@@]1(O)C[C@H](OC2CC(N(C)C)C(O)C(C)O2)c2c(cc3c(c2O)C(=O)c2c(O)ccc(O)c2C3=O)[C@H]1C(=O)OC (stereo not given in full)
inactive: dose: 1.56 mg/kg/injection, schedule: Q01DX009 (ip), vehicle: other 110 % of control | dose: 3.13 mg/kg/injection, schedule: Q01DX009 (ip), vehicle: other 123 % of control | dose: 6.25 mg/kg/injection, schedule: Q01DX009 (ip), vehicle: other 118 % of control

NC1=C(c2cccc(Cl)c2)C(=O)CC12C=CC(=O)C=C2
inactive: [1] 100 % of control | [2] 104 % of control | dose: 200.0 mg/kg/injection, schedule: Q01DX009 (ip), vehicle: Klucel (hydroxypropylcellulose) (HPC) 102 % of control

CCOC(=O)N1c2ccccc2C=CC1OCC (stereo not given)
inactive: dose: 6.0 mg/kg/injection, schedule: Q04DX003 (ip), vehicle: other 95 % of control | dose: 12.0 mg/kg/injection, schedule: Q04DX003 (ip), vehicle: other 100 % of control | dose: 25.0 mg/kg/injection, schedule: Q04DX003 (ip), vehicle: other 100 % of control

COc1cc2c(c(OC)c1OC)-c1ccc(OC)c(=O)cc1C([N+](C)(C)C)CC2 (stereo not given)
inactive: dose: 2.5 mg/kg/injection, schedule: Q01DX009 (ip), vehicle: Klucel (hydroxypropylcellulose) (HPC) 94 % of control | dose: 5.0 mg/kg/injection, schedule: Q01DX009 (ip), vehicle: Klucel (hydroxypropylcellulose) (HPC) 100 % of control | dose: 10.0 mg/kg/injection, schedule: Q01DX009 (ip), vehicle: Klucel (hydroxypropylcellulose) (HPC) 103 % of control | dose: 20.0 mg/kg/injection, schedule: Q01DX009 (ip), vehicle: Klucel (hydroxypropylcellulose) (HPC) 100 % of control

C=C1C(=O)OC(C)(C)C1c1ccccc1 (stereo not given)
inactive: [1] 96 % of control | [2] 90 % of control

C=CCOC(=O)C1CC2OC2CC1C (stereo not given)
inactive: dose: 75.0 mg/kg/injection, schedule: Q01DX009 (ip), vehicle: saline with Tween-80 96 % of control | dose: 150.0 mg/kg/injection, schedule: Q01DX009 (ip), vehicle: saline with Tween-80 103 % of control | dose: 300.0 mg/kg/injection, schedule: Q01DX009 (ip), vehicle: saline with Tween-80 97 % of control

Cc1ccc(NC(=O)Oc2cc(C)c(Br)c(C)c2)cc1[N+](=O)[O-]
inactive: [3] 95 % of control | [4] 97 % of control | dose: 50.0 mg/kg/injection, schedule: Q01DX009 (ip), vehicle: saline + alcohol 98 % of control | dose: 50.0 mg/kg/injection, schedule: Q01DX009 (ip), vehicle: saline 101 % of control | dose: 200.0 mg/kg/injection, schedule: Q01DX009 (ip), vehicle: saline + alcohol 100 % of control

COc1cc(OC)cc(-c2n[se]c(-c3cc(OC)cc(OC)c3)n2)c1
inactive: dose: 1.56 mg/kg/injection, schedule: Q01DX009 (ip), vehicle: saline with Tween-80 87 % of control | [5] 89 % of control

O=C(O)C1CCCCC12OCCO2 (stereo not given)
inactive: dose: 100.0 mg/kg/injection, schedule: Q04DX002 (ip), vehicle: saline 102 % of control | dose: 200.0 mg/kg/injection, schedule: Q04DX002 (ip), vehicle: saline 106 % of control | dose: 400.0 mg/kg/injection, schedule: Q04DX002 (ip), vehicle: saline 98 % of control

N[C@@H](CSSc1ccccc1C(=O)O)C(=O)O
inactive: dose: 100.0 mg/kg/injection, schedule: Q04DX002 (ip), vehicle: Klucel (hydroxypropylcellulose) (HPC) 103 % of control | dose: 200.0 mg/kg/injection, schedule: Q04DX002 (ip), vehicle: Klucel (hydroxypropylcellulose) (HPC) 107 % of control | dose: 400.0 mg/kg/injection, schedule: Q04DX002 (ip), vehicle: Klucel (hydroxypropylcellulose) (HPC) 105 % of control

CC(O)C([NH-])C(=O)O.CC([NH-])C(=O)O.[Cu+2] (stereo not given)
inactive: dose: 6.25 mg/kg/injection, schedule: Q01DX009 (ip), vehicle: saline 94 % of control | [3] 97 % of control | [4] 94 % of control

CC(=O)N(C)C
inactive: dose: 0.25 % in 0.5 ml injection vol, schedule: Q01DX009 (ip), vehicle: water 102 % of control | dose: 0.5 % in 0.5 ml injection vol, schedule: Q01DX009 (ip), vehicle: water 100 % of control and 102 % of control | dose: 1.0 % in 0.5 ml injection vol, schedule: Q01DX009 (ip), vehicle: water 99 % of control and 102 % of control | dose: 2.0 % in 0.5 ml injection vol, schedule: Q01DX009 (ip), vehicle: water 100 % of control and 101 % of control | dose: 8.0 % in 0.5 ml injection vol, schedule: Q01DX009 (ip), vehicle: water 112 % of control and 113 % of control | dose: 16.0 % in 0.5 ml injection vol, schedule: Q01DX009 (ip), vehicle: water 108 % of control

Cc1[nH]c(C(=O)O)cc(=O)c1C
inactive: dose: 25.0 mg/kg/injection, schedule: Q01DX009 (ip), vehicle: other 103 % of control | dose: 50.0 mg/kg/injection, schedule: Q01DX009 (ip), vehicle: other 103 % of control | dose: 100.0 mg/kg/injection, schedule: Q01DX009 (ip), vehicle: other 101 % of control | dose: 200.0 mg/kg/injection, schedule: Q01DX009 (ip), vehicle: other 99 % of control | dose: 400.0 mg/kg/injection, schedule: Q01DX009 (ip), vehicle: other 97 % of control

CC1(CCC(=O)c2cc3c(cc2Br)OCO3)OCCO1
inactive: dose: 25.0 mg/kg/injection, schedule: Q01DX005 (ip), vehicle: saline with Tween-80 99 % of control | dose: 50.0 mg/kg/injection, schedule: Q01DX005 (ip), vehicle: saline with Tween-80 99 % of control | dose: 100.0 mg/kg/injection, schedule: Q01DX005 (ip), vehicle: saline with Tween-80 100 % of control

Cc1cc2cc(C)nc(C)c2c(C)n1
inactive: [6] 94 % of control | [7] 89 % of control | dose: 200.0 mg/kg/injection, schedule: Q01DX005 (ip), vehicle: Klucel (hydroxypropylcellulose) (HPC) 92 % of control

O=[N+]([O-])c1cc(Br)c2cccc3c2c1CC3
inactive: dose: 25.0 mg/kg/injection, schedule: Q01DX005 (ip), vehicle: Klucel (hydroxypropylcellulose) (HPC) 91 % of control | [6] 93 % of control | [7] 90 % of control

CCOC(=O)C(CC)C1=CCCCC1 (stereo not given)
inactive: [5] 109 % of control | [8] 118 % of control | dose: 100.0 mg/kg/injection, schedule: Q04DX003 (ip), vehicle: saline with Tween-80 109 % of control | dose: 200.0 mg/kg/injection, schedule: Q01DX009 (ip), vehicle: saline with Tween-80 118 % of control | dose: 200.0 mg/kg/injection, schedule: Q04DX003 (ip), vehicle: saline with Tween-80 100 % of control | dose: 400.0 mg/kg/injection, schedule: Q04DX003 (ip), vehicle: saline with Tween-80 113 % of control

COC(=O)CC1(C(=O)OC)C2=C(C(C(=O)C(F)F)CC2)N2CCCC21 (stereo not given)
inactive: dose: 12.5 mg/kg/injection, schedule: Q01DX001 (ip), vehicle: Klucel (hydroxypropylcellulose) (HPC) 94 % of control | dose: 25.0 mg/kg/injection, schedule: Q01DX001 (ip), vehicle: Klucel (hydroxypropylcellulose) (HPC) 97 % of control | dose: 50.0 mg/kg/injection, schedule: Q01DX001 (ip), vehicle: Klucel (hydroxypropylcellulose) (HPC) 100 % of control

NC(=O)C(CCCCNc1c(C(=O)O)cc([N+](=O)[O-])cc1[N+](=O)[O-])NC(=O)c1ccccc1 (stereo not given)
inactive: dose: 60.0 mg/kg/injection, schedule: Q01DX005 (ip), vehicle: saline 100 % of control | dose: 120.0 mg/kg/injection, schedule: Q01DX005 (ip), vehicle: saline 105 % of control | dose: 240.0 mg/kg/injection, schedule: Q01DX005 (ip), vehicle: saline 100 % of control

CN(C)N=Nc1ccc(-c2ccccc2)cc1
inactive: dose: 12.5 mg/kg/injection, schedule: Q01DX009 (ip), vehicle: saline with Tween-80 100 % of control and 104 % of control | dose: 25.0 mg/kg/injection, schedule: Q01DX009 (ip), vehicle: saline with Tween-80 102 % of control and 115 % of control | [5] 101 % of control and 110 % of control | [8] 102 % of control and 117 % of control
